Reference: patent publication US9695155B2, “Herbicidal substituted pyrimidinyloxy benzene compounds” (E. I. DU PONT DE NEMOURS AND COMPANY, priority 2013, dated 2017)

What was measured:
barnyardgrass [1] = experiment: Test B flooded paddy test; assay type: in vivo, Echinochloa crus-galli; settings: Flood, 250 g ai/ha; 0 to 100 scale where 0 is no effect and 100 is complete control
Summary of the method: (§1)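 Post-emergence paddy-water application at the 2-leaf stage, with 3 cm flood kept for the whole test. Response was judged visually relative to controls after 13 to 15 greenhouse days, 0 indicating no effect and 100 complete control.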

large (Lg) crabgrass [2] = experiment: Test A preemergence; assay type: in vivo, Digitaria sanguinalis; settings: for Plant response rating, Crabgrass, Large: 125 g ai/ha, 0 to 100 scale where 0 is no effect and 100 is complete control; for Crabgrass, Large plant response rating: 0 to 100 scale, 0 no effect, 100 complete control, approx. 10 days
Summary of the method: (§2)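 Pre- and postemergence greenhouse screen. Soil: loam + sand. Spray carrier: solvent mixture, non-phytotoxic, with surfactant. Post timing at 1–2 leaves, height 2–10 cm. Readout: visual injury on a 0–100 scale roughly 10 days after application, untreated plants as reference.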

corn [3] = experiment: Test A preemergence; assay type: in vivo, Zea mays; settings: for Plant response rating, Corn: 125 g ai/ha, 0 to 100 scale where 0 is no effect and 100 is complete control; for Corn plant response rating: 0 to 100 scale, 0 no effect, 100 complete control, approx. 10 days
Summary of the method: as §2

wheat [4] = experiment: Test A postemergence; assay type: in vivo, Triticum aestivum
Summary of the method: as §2

morningglory [5] = experiment: Test A postemergence; assay type: in vivo, Ipomoea spp.
Summary of the method: as §2

barnyardgrass [6] = experiment: Test A preemergence; assay type: in vivo, Echinochloa crus-galli; settings: for Plant response rating, Barnyardgrass: 125 g ai/ha, 0 to 100 scale where 0 is no effect and 100 is complete control; for Barnyardgrass plant response rating: 0 to 100 scale, 0 no effect, 100 complete control, approx. 10 days
Summary of the method: as §2

giant foxtail [7] = experiment: Test A preemergence; assay type: in vivo, Setaria faberii; settings: for Plant response rating, Foxtail, Giant: 125 g ai/ha, 0 to 100 scale where 0 is no effect and 100 is complete control; for Foxtail, Giant plant response rating: 0 to 100 scale, 0 no effect, 100 complete control, approx. 10 days
Summary of the method: as §2

pigweed [8] = experiment: Test A postemergence; assay type: in vivo, Amaranthus retroflexus
Summary of the method: as §2

giant foxtail [9] = experiment: Test A postemergence; assay type: in vivo, Setaria faberii
Summary of the method: as §2

velvetleaf [10] = experiment: Test A preemergence; assay type: in vivo, Abutilon theophrasti; settings: for Plant response rating, Velvetleaf: 125 g ai/ha, 0 to 100 scale where 0 is no effect and 100 is complete control; for Velvetleaf plant response rating: 0 to 100 scale, 0 no effect, 100 complete control, approx. 10 days
Summary of the method: as §2

sedge, umbrella = experiment: Test B flooded paddy test; assay type: in vivo, Cyperus difformis; settings: Flood, 250 g ai/ha; 0 to 100 scale where 0 is no effect and 100 is complete control
Summary of the method: as §1

pigweed [11] = experiment: Test A preemergence; assay type: in vivo, Amaranthus retroflexus; settings: for Plant response rating, Pigweed: 125 g ai/ha, 0 to 100 scale where 0 is no effect and 100 is complete control; for Pigweed plant response rating: 0 to 100 scale, 0 no effect, 100 complete control, approx. 10 days
Summary of the method: as §2

velvetleaf [12] = experiment: Test A postemergence; assay type: in vivo, Abutilon theophrasti
Summary of the method: as §2

large (Lg) crabgrass [13] = experiment: Test A postemergence; assay type: in vivo, Digitaria sanguinalis
Summary of the method: as §2

morningglory [14] = experiment: Test A preemergence; assay type: in vivo, Ipomoea spp.; settings: for Plant response rating, Morningglory: 125 g ai/ha, 0 to 100 scale where 0 is no effect and 100 is complete control; for Morningglory plant response rating: 0 to 100 scale, 0 no effect, 100 complete control, approx. 10 days
Summary of the method: as §2

rice = experiment: Test B flooded paddy test; assay type: in vivo, Oryza sativa; settings: Flood, 250 g ai/ha; 0 to 100 scale where 0 is no effect and 100 is complete control
Summary of the method: as §1

barnyardgrass [15] = experiment: Test A postemergence; assay type: in vivo, Echinochloa crus-galli
Summary of the method: as §2

corn [16] = experiment: Test A postemergence; assay type: in vivo, Zea mays
Summary of the method: as §2

Heteranthera limosa = experiment: Test B flooded paddy test; assay type: in vivo; settings: Flood, 250 g ai/ha; 0 to 100 scale where 0 is no effect and 100 is complete control
Summary of the method: as §1

wheat [17] = experiment: Test A preemergence; assay type: in vivo, Triticum aestivum; settings: for Plant response rating, Wheat: 125 g ai/ha, 0 to 100 scale where 0 is no effect and 100 is complete control; for Wheat plant response rating: 0 to 100 scale, 0 no effect, 100 complete control, approx. 10 days
Summary of the method: as §2

[18] = 500 g ai/ha, 0 to 100 scale where 0 is no effect and 100 is complete control
[19] = 125 g ai/ha, 0 to 100 scale where 0 is no effect and 100 is complete control
[20] = 500 g ai/ha, 0 to 100 scale, 0 no effect, 100 complete control
[21] = 1000 g ai/ha, 0 to 100 scale, 0 no effect, 100 complete control

| SMILES | Plant response rating, Barnyardgrass (barnyardgrass [1]) | Plant response rating, Crabgrass, Large (large (Lg) crabgrass [2]) | Crabgrass, Large plant response rating (large (Lg) crabgrass [2]; 500 g ai/ha) | Plant response rating, Corn (corn [3]) | Corn plant response rating (corn [3]; 500 g ai/ha) | Plant response rating, Barnyardgrass (barnyardgrass [6]) | Barnyardgrass plant response rating (barnyardgrass [6]; 500 g ai/ha) | Plant response rating, Foxtail, Giant (giant foxtail [7]) | Foxtail, Giant plant response rating (giant foxtail [7]; 500 g ai/ha) | Plant response rating, Foxtail, Giant (giant foxtail [9]; [19]) | Plant response rating, Velvetleaf (velvetleaf [10]) | Plant response rating, Sedge, Umbrella (sedge, umbrella) | Plant response rating, Pigweed (pigweed [11]) | Pigweed plant response rating (pigweed [11]; 500 g ai/ha) | Plant response rating, Crabgrass, Large (large (Lg) crabgrass [13]; [19]) | Plant response rating, Morningglory (morningglory [14]) | Morningglory plant response rating (morningglory [14]; 500 g ai/ha) | Plant response rating, Rice (rice) | Plant response rating, Barnyardgrass (barnyardgrass [15]; [19]) | Plant response rating, Ducksalad (Heteranthera limosa) | also measured |
| --- | --- | --- | --- | --- | --- | --- | --- | --- | --- | --- | --- | --- | --- | --- | --- | --- | --- | --- | --- | --- | --- |
| N#Cc1cccc(Oc2ncc(C(F)(F)F)cn2)c1-n1cc(Br)cn1 [Compound 113] | 0 | 80 | 100 | 0 | 20 | 0 | 90 | 20 | 90 | 10 | 10 | 0 | 100 | 100 | 20 | 0 | 30 | 0 | 0 | 0 | Plant response rating, Wheat (wheat [4]; [18]): 60; Plant response rating, Morningglory (morningglory [5]; [18]): 30; Plant response rating, Pigweed (pigweed [8]; [18]): 80; Plant response rating, Foxtail, Giant (giant foxtail [9]; [18]): 60; Plant response rating, Velvetleaf (velvetleaf [12]; [18]): 80; Plant response rating, Crabgrass, Large (large (Lg) crabgrass [13]; [18]): 70; Plant response rating, Barnyardgrass (barnyardgrass [15]; [18]): 80; Plant response rating, Corn (corn [16]; [19]): 10; Plant response rating, Corn (corn [16]; [18]): 60; Plant response rating, Wheat (wheat [17]): 0 |
| COc1ccc(Oc2ncc(Br)cn2)c(-n2cc(Br)cn2)c1 [Compound 43] | 0 | 10 | 50 | 0 | 0 | 0 | 10 | 10 | 20 | 0 | 30 | 0 | 0 | 20 | 10 | 0 | 0 | 0 | 0 | 75 | Plant response rating, Wheat (wheat [4]; [19]): 0; Plant response rating, Wheat (wheat [4]; [20]): 0; Plant response rating, Morningglory (morningglory [5]; [19]): 30; Plant response rating, Morningglory (morningglory [5]; [20]): 50; Plant response rating, Pigweed (pigweed [8]; [19]): 30; Plant response rating, Pigweed (pigweed [8]; [20]): 40; Plant response rating, Foxtail, Giant (giant foxtail [9]; [20]): 40; Velvetleaf plant response rating (velvetleaf [10]; 500 g ai/ha): 50; Plant response rating, Velvetleaf (velvetleaf [12]; [19]): 60; Plant response rating, Velvetleaf (velvetleaf [12]; [20]): 100; Plant response rating, Crabgrass, Large (large (Lg) crabgrass [13]; [20]): 20; Plant response rating, Barnyardgrass (barnyardgrass [15]; [20]): 10; Plant response rating, Corn (corn [16]; [19]): 0; Plant response rating, Corn (corn [16]; [20]): 10; Plant response rating, Wheat (wheat [17]): 0; Wheat plant response rating (wheat [17]; 500 g ai/ha): 0 |
| CC(=O)Oc1cccc(Oc2ncc(Cl)cn2)c1-n1cc(Cl)cn1 [Compound 216] | 0 | – | – | – | – | – | – | – | – | – | – | 0 | – | – | – | – | – | 0 | – | 0 | Crabgrass, Large plant response rating (large (Lg) crabgrass [2]; 1000 g ai/ha): 70; Corn plant response rating (corn [3]; 1000 g ai/ha): 0; Plant response rating, Wheat (wheat [4]; [21]): 0; Plant response rating, Morningglory (morningglory [5]; [21]): 40; Barnyardgrass plant response rating (barnyardgrass [6]; 1000 g ai/ha): 30; Foxtail, Giant plant response rating (giant foxtail [7]; 1000 g ai/ha): 40; Plant response rating, Pigweed (pigweed [8]; [21]): 100; Plant response rating, Foxtail, Giant (giant foxtail [9]; [21]): 30; Velvetleaf plant response rating (velvetleaf [10]; 1000 g ai/ha): 30; Pigweed plant response rating (pigweed [11]; 1000 g ai/ha): 100; Plant response rating, Velvetleaf (velvetleaf [12]; [21]): 100; Plant response rating, Crabgrass, Large (large (Lg) crabgrass [13]; [21]): 40; Morningglory plant response rating (morningglory [14]; 1000 g ai/ha): 0; Plant response rating, Barnyardgrass (barnyardgrass [15]; [21]): 0; Plant response rating, Corn (corn [16]; [21]): 0; Wheat plant response rating (wheat [17]; 1000 g ai/ha): 0 |
